Our source for the melting point values is a melting point compilation (Tetko et al.).

Molecules are shown by their SMILES.

`Nc1cc(Cl)ccc1-n1cncn1`: the melting point lay in the range of 93 to 97 °C.

With `CC(C)(C(=O)O)c1cccs1`, the melting point fell in the range of 78 to 80 °C.

The molecule `Cn1c2ccccc2n2c(S)nnc12` had a melting point of 270 to 272 °C.

Molecule `O=C(O)c1ccc(CN(Cc2ccccc2)S(=O)(=O)c2ccc(Cl)cc2)cc1` came in with a melting point of 203 to 205 °C.

Take `CC(NC(=O)C1CCOCC1)C(=O)O` (centres undefined): the melting point fell in the range of 178 to 180 °C.

`COCCNc1ccc(S(C)(=O)=O)cc1N` had a melting point of 144 to 146 °C.

Turning to `CCCC(C#N)NC(=O)c1ccccc1` (centres undefined), the melting point lay in the range of 89 to 91 °C.

In turn, `CN(C)C1CCN(c2ccc(N)cc2F)CC1` registered a melting point of 124 to 126 °C.

The molecule `O=C(CO)NCc1ccc(F)cc1` gave a melting point of 102 to 104 °C.

As to `Cc1cc(-c2cc(C(=O)O)c3c(C)noc3n2)c(C)s1`, the melting point fell in the range of 256 to 258 °C.

In turn, `CS(=O)(=O)c1ccc(OCCCBr)cc1` returned a melting point of 93 to 95 °C.

`CC(C)NCc1nc2ccccc2c(=O)[nH]1` yielded a melting point of 145 to 147 °C.

In turn, `Cn1cc(S(N)(=O)=O)c(N)n1` came in with a melting point of 162 to 164 °C.

In the case of `COc1cc(=O)[nH]c(NC(=O)CCl)n1`, the melting point lay in the range of 189 to 191 °C.

`Cc1cc(C)n(-c2ccc(N)cc2F)n1` came in with a melting point of 124 to 126 °C.

In turn, `O=C(O)c1cc(S(=O)(=O)Nc2ccc(F)cc2)ccc1Cl` displayed a melting point of 205 to 207 °C.

As for `O=C(O)[C@@H]1CCCN1C(=O)NCc1cccc(Br)c1`, the melting point was in the range of 146 to 148 °C.

`CN(C)c1cc(C#N)c2ccccc2n1` gave a melting point of 119 to 121 °C.

`COc1ccc(-c2csc(NC(=O)CCl)n2)c(OC)c1` displayed a melting point of 109 to 111 °C.

`O=Cc1ccc(Sc2ncccn2)c([N+](=O)[O-])c1` registered a melting point of 100 to 102 °C.

As to `CCOC(=O)c1c(N)cc(OC)cc1OC`, the melting point was in the range of 61 to 63 °C.

On to `NC(=O)c1ccsc1NC(=O)CCCl`, for which the melting point fell in the range of 171 to 173 °C.

`CC(C)c1ccc(S(=O)(=O)c2ccc(NN)cc2)cc1`: the melting point was 191 to 193 °C.

As for `O=C(O)c1cnc(-c2ccccn2)s1`, the melting point lay within 199 to 201 °C.

Turning to `Cc1c(C(=O)O)sc2nnc(S)n12`, the melting point was 275 to 277 °C.

Consider `Cc1ccc(S(=O)(=O)Nc2ccc(N)cc2)cc1`, for which the melting point is 183 to 185 °C.

Molecule `CC(C)(C)n1cc(N)cn1` came in with a melting point of 56 to 58 °C.

For the molecule `Cc1ccc(C(N)=S)o1`, the melting point lay within 149 to 151 °C.

Take `CC1(c2ccccc2Br)NC(=O)NC1=O` (centres undefined): the melting point lay in the range of 219 to 221 °C.

Consider `CC(O)C1CCCCN1C(=O)OC(C)(C)C` (centres undefined), for which the melting point was 46 to 48 °C.

`COc1cccc(NC(=O)COc2ccc(C(=O)O)cc2)c1` registered a melting point of 131 to 134 °C.

Molecule `COc1ccc(C(=O)O)cc1OCc1ccccn1` showed a melting point of 219 to 221 °C.

`O=C(O)c1ccc(F)c(S(=O)(=O)Cc2ncon2)c1` came in with a melting point of 169 to 171 °C.

Molecule `CCOc1ccc2oc(C(=O)O)c(C)c2c1` gave a melting point of 155 to 165 °C.

`NNc1ccc(S(=O)(=O)NCc2ccco2)cn1` registered a melting point of 144 to 146 °C.

The molecule `Nc1c(Cl)cnn1C1CCN(Cc2ccccc2)C1` (centres undefined) returned a melting point of 106 to 108 °C.

The molecule `CCCC(NC(=O)Cc1ccccc1)C(=O)O` (centres undefined) returned a melting point of 133 to 135 °C.

Turning to `COc1ccc2cc(C=O)c(Cl)nc2c1`, the melting point fell in the range of 84 to 86 °C.

For `CCOc1ccccc1C(N)(C(=O)O)C(F)(F)F` (centres undefined), the melting point was 119 to 121 °C.

For `Cc1ccc(C)c(-c2cnnc(N)n2)c1`, the melting point was 179 to 181 °C.

In turn, `Oc1ccc(-c2nnc[nH]2)cc1` returned a melting point of 244 to 246 °C.

As to `CC(=O)c1ccc(S(=O)(=O)CC(F)F)cc1`, the melting point fell in the range of 97 to 99 °C.

The molecule `CC(C)(C)OC(=O)N1CCC(C(=O)O)(n2cccn2)CC1` came in with a melting point of 159 to 161 °C.

The molecule `NCc1nc(-c2cccs2)no1` yielded a melting point of 141 to 143 °C.

The molecule `COc1cc(C(N)=NO)ccc1O` yielded a melting point of 147 to 149 °C.

`Nc1ccnc(N2CCCC2)n1` came in with a melting point of 218 to 220 °C.

Take `O=C(O)C1CCN(C(=O)COc2ccccc2)CC1`: the melting point was in the range of 73 to 75 °C.

`CC(=O)c1ccc(O)c(CN2CCOCC2)c1` gave a melting point of 70 to 72 °C.

The molecule `NC(=O)CCOc1ccccc1N` gave a melting point of 98 to 100 °C.

`O=c1[nH]cnc2nc(NCc3ccco3)sc12` came in with a melting point of 279 to 281 °C.

With `O=C(c1ccc(Cl)cc1Cl)N1CCNCC1`, the melting point lay in the range of 108 to 110 °C.

Regarding `Cc1nc(-c2cccc(N)c2)oc1C`, the melting point lay within 104 to 106 °C.

As for `CC(Cl)C(=O)c1c(N)n(C)c(=O)n(C)c1=O` (centres undefined), the melting point was 140 to 142 °C.

`O=C1CC2(CCCC2)C(=O)O1` showed a melting point of 33 to 35 °C.

`NNC(=S)N1CCOCC1` had a melting point of 181 to 183 °C.

Consider `COc1cccc2c1C(=O)CC2`, for which the melting point lay in the range of 99 to 102 °C.

The molecule `[N-]=[N+]=NS(=O)(=O)c1cccc2c1N=S=N2` showed a melting point of 118 to 120 °C.

Regarding `CCS(=O)(=O)N1CCC(C(=O)O)CC1`, the melting point lay in the range of 143 to 145 °C.

As to `O=C(Nc1ccc(O)cc1)c1ccccc1`, the melting point is 215 to 217 °C.

In turn, `COc1ccc(-c2nn(CCC#N)cc2C(=O)O)cc1[N+](=O)[O-]` had a melting point of 190 to 192 °C.

Consider `O=C(O)c1cc(/C=C/c2cccc(Br)c2)nc2ccc(Br)cc12`, for which the melting point lay within 307 to 309 °C.

`Nc1c(F)cccc1S(N)(=O)=O`: the melting point is 136 to 138 °C.

`Cn1ncc2c(=O)[nH]c(Cl)nc21` showed a melting point of 268 to 270 °C.

For the molecule `O=C(O)c1c(C2CC2)nc2sccn12`, the melting point was 163 to 165 °C.

As to `O=C(O)CCCCNC(=O)c1ccc2[nH]nnc2c1`, the melting point was 189 to 191 °C.

In the case of `NNC(=O)C(=O)NC1CC1`, the melting point lay within 181 to 183 °C.

In turn, `CSCc1c(C(=O)O)oc2ccccc12` gave a melting point of 100 to 102 °C.

`COC(=O)COc1c(C)cc(C=O)cc1C`: the melting point fell in the range of 50 to 52 °C.

Consider `CCOc1ccc(S(=O)(=O)Cl)cc1`, for which the melting point was in the range of 40 to 45 °C.

As to `Cc1nc(CNC(=O)OC(C)(C)C)ccc1C(=O)O`, the melting point lay in the range of 163 to 165 °C.

`O=C(O)CSc1nnc(-c2ccc(F)cc2)n1CC1CCCO1` (centres undefined): the melting point lay in the range of 131 to 133 °C.

In the case of `CC(C)(C)OC(=O)N1CCCc2cc(N)ccc21`, the melting point was in the range of 55 to 57 °C.

`NC(=O)CCc1ccc(F)cc1` came in with a melting point of 105 to 107 °C.

As to `C=CCNc1ccc(C(F)(F)F)cc1C#N`, the melting point was 54 to 56 °C.

`O=C(O)CCN1C(=O)C(=O)c2ccc(F)cc21` returned a melting point of 179 to 181 °C.

Take `COc1c(F)c(F)c(N)c(F)c1F`: the melting point was in the range of 78 to 80 °C.

As to `OCCCNc1ccncc1`, the melting point fell in the range of 98 to 100 °C.

As to `O=C(O)C=Cc1cc(Br)ccc1OC(F)F`, the melting point lay within 155 to 157 °C.

Molecule `NC(C(=O)O)(c1cccc(Cl)c1)C(F)(F)F` (centres undefined) came in with a melting point of 109 to 111 °C.

Regarding `Cc1cc(C(=O)O)ccc1N1CCCS1(=O)=O`, the melting point lay in the range of 174 to 176 °C.

`O=C(COc1ccccc1C(=O)O)Nc1ccc(Br)cc1` registered a melting point of 241 to 243 °C.

`Cc1c(C)n(CCc2ccccn2)c2[nH]cnc(=N)c12` came in with a melting point of 132 to 134 °C.

For the molecule `CN(C)c1cc(C(=O)O)cc(Cl)n1`, the melting point fell in the range of 194 to 196 °C.

Consider `CCC(NC(=O)OC(C)(C)C)c1ccccc1O` (centres undefined), for which the melting point fell in the range of 111 to 113 °C.

For the molecule `Cc1c(C(=O)O)c(=O)oc2ccc(Br)cc12`, the melting point fell in the range of 179 to 181 °C.

Molecule `OC1CN(c2ccc(C(F)(F)F)cn2)C1` yielded a melting point of 136 to 138 °C.

For `Cc1cccn2cc(CC(N)=S)nc12`, the melting point was 153 to 155 °C.

With `Clc1cc(Cl)cc(OCC2CCNCC2)c1`, the melting point was in the range of 59 to 61 °C.

`Nc1nnc(-c2ccoc2)[nH]1` yielded a melting point of 188 to 190 °C.

Take `O=C(O)c1cc(I)cc([N+](=O)[O-])c1`: the melting point lay within 167 to 169 °C.

In the case of `Cc1cc(C(=O)O)c(C)n1-c1ccc(F)cc1`, the melting point was 232 to 234 °C.

Consider `CC(=O)CCCCCCC(=O)O`, for which the melting point fell in the range of 38 to 40 °C.

In turn, `CCc1ccc(N2CC(C(=O)O)CC2=O)cc1` (centres undefined) yielded a melting point of 144 to 148 °C.

`COc1cc(C(=O)O)ccc1OCCC(C)C` displayed a melting point of 92 to 94 °C.

`COCCn1cc(C(=O)O)c2ccccc21` came in with a melting point of 123 to 125 °C.

Take `COC(=O)c1cccc(Oc2ccnc(Cl)n2)c1`: the melting point fell in the range of 117 to 119 °C.

On to `NNC(=O)Cc1cc[nH]n1`, for which the melting point is 180 to 182 °C.

`Nc1nnc(-c2ccc3c(c2)OCO3)o1` returned a melting point of 271 to 273 °C.

On to `Cc1cc(N)ccc1N1C(=O)CCC1=O`, for which the melting point was 167 to 169 °C.

`Sc1nnc(-c2ccccc2)c(-c2ccccc2)n1` had a melting point of 222 to 224 °C.

On to `Cc1ccccc1-n1c(C)cc(C(=O)O)c1C`, for which the melting point is 127 to 129 °C.

On to `CN(C)S(=O)(=O)c1cccc(S(=O)(=O)Cl)c1`, for which the melting point was 97 to 99 °C.

`Clc1cccc(-c2noc(Cl)n2)c1`: the melting point was 44 to 46 °C.

In turn, `CC(=NO)c1ccc(OCC(F)(F)F)cc1` came in with a melting point of 127 to 129 °C.

For `Nc1cc(CO)ccc1Cl`, the melting point was 97 to 99 °C.

`NC(CSCCOc1ccccc1)C(=O)O` (centres undefined) registered a melting point of 214 to 216 °C.

In turn, `Cc1cc(N)ccc1-n1cnnn1` came in with a melting point of 135 to 137 °C.

On to `Cc1ccc(NC(=O)c2cccc(Cl)c2)c(C(=O)O)c1`, for which the melting point was in the range of 191 to 193 °C.

Regarding `COc1ccc2c(c1)CC(=O)NCC2`, the melting point was in the range of 151 to 153 °C.

For the molecule `N#CC1=C(Cl)CCCC1`, the melting point is 38 to 40 °C.

In turn, `COC(=O)c1cc([N+](=O)[O-])cc([N+](=O)[O-])c1OC` came in with a melting point of 69 to 71 °C.

In turn, `O=C1CCCS(=O)(=O)C1` displayed a melting point of 141 to 143 °C.

Regarding `COc1ccc2cc(-c3nn(-c4ccccc4)cc3C=O)ccc2c1`, the melting point was in the range of 164 to 166 °C.

`Cc1cccc(OCCCCC(=O)O)c1` came in with a melting point of 55 to 57 °C.

Molecule `O=C(C(=O)N1CCOCC1)N1CCNCC1` had a melting point of 127 to 129 °C.

Consider `Cc1cc(Br)cc2c(O)c(C(=O)O)cnc12`, for which the melting point was 299 to 301 °C.

As for `Cc1nn(-c2ccccc2Cl)c(C(F)F)c1C(=O)O`, the melting point fell in the range of 204 to 206 °C.

Molecule `CCNc1ccncc1` showed a melting point of 103 to 105 °C.

In turn, `C=CCNS(=O)(=O)c1ccc(C(=O)O)cc1` yielded a melting point of 215 to 217 °C.

For orientation: melting point means the temperature, or range, at which the solid turns liquid.
